In patent US9353150B2, “Substituted pyrazino[1′,2′:1 ,5]pyrrolo[2,3-b]-indole-1,4-diones for cancer treatment” (Massachusetts Institute of Technology, priority 2012, dated 2016):
“Also recorded” adds a separate entry of the source. Where two headings read alike, the source gives them in different places.

Experiments:
MCF-7 (breast carcinoma) = test: 72-hour IC50 determination for adherent cells using sulforhodamine B (SRB); type: cell-based, human; conditions: error is standard deviation of the mean, n ≧ 3, read-out: MCF-7, 72-hour IC50 (Table E1-2)
Protocol: (§1) Certain provided compounds were tested in culture against a panel of three supplementary human cancer cell lines representing three additional tumor histologies (H460, lung carcinoma; 786-O, renal carcinoma; MCF-7, breast carcinoma). As shown in Table E1-2, the ETPs retain their potency across the cell lines. In some embodiments, a provided compound is active in all cell lines. In some embodiments, a provide compound can be used to selectively target certain cells and/or cancers. […] Without the intention to be limited, Applicant notes that certain cell lines could be more sensitive to provided compounds; for example, U-937 and HeLa are slightly more sensitive to the ETPs than the other three cell lines.
(§2) Cells were grown in media supplemented with fetal bovine serum (FBS) and antibiotics ([…]). Specifically, experiments were performed using the following cell lines and media compositions: U-937, HeLa, H460, and 786-O (RPMI-1640+10% FBS), and MCF7 (EMEM+10% FBS). Cells were incubated at 37° C. in a 5% CO2, 95% humidity atmosphere.
(§3) Adherent cells (HeLa, H460, 786-O, and MCF7) were added into 96-well plates (5,000 cells/well for HeLa cell line; 2,000 cells/well for H460, 786-O, and MCF7 cell lines) in 100 μL media and were allowed to adhere for 2-3 hours. Compounds were solubilized in DMSO as 100× stocks, added directly to the cells (100 μL final volume), and tested over a range of concentrations in triplicate (1% DMSO final) on a half-log scale. Concentrations tested ranged from […] to 10 μM, depending on the potency of the compound. DMSO and cell-free wells served as the live and dead control, respectively. After 72 hours of continuous exposure, the plates were evaluated using the SRB colorimetric assay as described previously (Vichai, V.; Kirtikara, K. Nature Prot. 2006, 1, 1112). Briefly, media was removed from the plate, and cells were fixed by the addition of 100 μL cold 10% trichloroacetic acid in water. After incubating at 4° C. for an hour, the plates were washed in water and allowed to dry. Sulforhodamine B was added as a 0.057% solution in 1% acetic acid (100 μL), and the plates were incubated at room temperature for 30 minutes, washed in 1% acetic acid, and allowed to dry. The dye was solubilized by adding 10 mM Tris base solution (pH 10.5, 200 μL) and incubating at room temperature for 30 minutes. Plates were read at λ=510 nm. IC50 values were determined from three or more independent experiments using TableCurve (San Jose, Calif.).

786-O (renal carcinoma) = test: as above; type: cell-based, human; conditions: error is standard deviation of the mean, n ≧ 3, read-out: 786-O, 72-hour IC50 (Table E1-2)
Protocol: as §1, §2, §3

H460 (lung carcinoma) = test: as above; type: cell-based, human; conditions: error is standard deviation of the mean, n ≧ 3, read-out: H460, 72-hour IC50 (Table E1-2)
Protocol: as §1, §2, §3

[1] = test system: U-937 (hystiocytic lymphoma); test: 72-hour IC50 determination for non-adherent cells using MTS; type: cell-based, human
How it was run: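 U-937 cells (5,000/well) in RPMI-1640 + 10% FBS were exposed to compounds in triplicate (1% DMSO final) for 72 h at 37 °C. Viability was read by PMS/MTS absorbance at 490 nm, with DMSO wells as live and cell-free wells as dead controls. IC50 came from three or more independent experiments.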

[2] = test system: HeLa (cervical carcinoma); test: 72-hour IC50 determination for adherent cells using sulforhodamine B (SRB); type: cell-based, human
How it was run: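 HeLa cells were seeded at 5,000 cells/well in RPMI-1640 with 10% FBS and exposed continuously for 72 hours to compounds on a half-log scale (1% DMSO final, triplicate). Cells were then TCA-fixed, stained with sulforhodamine B and read at 510 nm. IC50 values came from three or more independent experiments.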

U-937 cells = test: Apoptosis in U-937 cells with Annexin V-FITC and propidium iodide (AnnV/PI), flow cytometry; type: cell-based, human; conditions: 24 hours, compounds at 100-times their 72-hour IC50
Protocol: DMSO stocks of compounds were added to a 24-well plate in singlicate (0.2% DMSO final). After compound addition, 0.5 mL of a U-937 cell suspension (250,000 cells/mL) was added and allowed to incubate for 24 hours. Following treatment, the cell suspensions were transferred to flow cytometry tubes and pelleted (500 g, 3 min). The media was removed by aspiration, and cells were re-suspended in 200 μL AnnV binding buffer (10 mM HEPES, pH 7.4, 140 mM NaCl, 2.5 mM CaCl2) with 5 μg/mL PI and 1:90 dilution of AnnV. Samples were analyzed using flow cytometry.

[3] = Stability observed on isolation (concentration / solution); conditions: observed during isolation and characterization
human cancer cell lines = test: Anticancer activity in human cancer cell lines, not tied to one cell line; type: cell-based; conditions: for anticancer activity, in words: human cancer cell lines, 72-hour exposure
How it was run: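 Cells exposed 72 h to compound on a half-log scale (1% DMSO final); adherent lines (HeLa, H460, 786-O, MCF7) read by SRB staining at 510 nm, U-937 by MTS/PMS absorbance at 490 nm. IC50 from three or more independent experiments.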

[4] = 72-hour exposure, MTS, error is standard deviation of the mean, n ≧ 3, read-out: U-937, 72-hour IC50 (Table E1-1)
[5] = 72-hour exposure, MTS, error is standard deviation of the mean, n ≧ 3, read-out: U-937, 72-hour IC50 (Table E1-2)
[6] = 72-hour exposure, SRB, error is standard deviation of the mean, n ≧ 3, read-out: HeLa, 72-hour IC50 (Table E1-1)
[7] = 72-hour exposure, SRB, error is standard deviation of the mean, n ≧ 3, read-out: HeLa, 72-hour IC50 (Table E1-2)
[8] = Homo sapiens, MCF7, 72-hour exposure
[9] = Homo sapiens, 786-0, 72-hour exposure
[10] = Homo sapiens, NCI-H460, 72-hour exposure
[11] = Homo sapiens, U-937, 72-hour exposure, MTS, error is standard deviation of the mean, n ≧ 3, read-out: U-937, 72-hour IC50 (Table E1-1)
[12] = Homo sapiens, U-937, 72-hour exposure, MTS, error is standard deviation of the mean, n ≧ 3, read-out: U-937, 72-hour IC50 (Table E1-2)
[13] = Homo sapiens, HeLa, 72-hour exposure, SRB, error is standard deviation of the mean, n ≧ 3, read-out: HeLa, 72-hour IC50 (Table E1-1)
[14] = Homo sapiens, HeLa, 72-hour exposure, SRB, error is standard deviation of the mean, n ≧ 3, read-out: HeLa, 72-hour IC50 (Table E1-2)

| SMILES | IC50 (MCF-7 (breast carcinoma); [8]) | IC50 (786-O (renal carcinoma); [9]) | IC50 (H460 (lung carcinoma); [10]) | IC50 [1, 11] | IC50 [1, 12] | IC50 [2, 13] | IC50 [2, 14] | stability upon concentration or in solution [3] | anticancer activity, in words (human cancer cell lines) | other results |
| --- | --- | --- | --- | --- | --- | --- | --- | --- | --- | --- |
| CN1C(=O)C23CC4(c5c[nH]c6ccccc56)c5ccccc5N(S(=O)(=O)c5ccccc5)C4N2C(=O)C1SS3 (stereo not drawn) [Compound 26, C3-(Indol-3′-yl) epidithiodiketopiperazine] | – | – | – | – | – | – | – | – | – | IC50 (MCF-7 (breast carcinoma); 72-hour exposure): 67 ± 19 nM; IC50 (786-O (renal carcinoma); 72-hour exposure): 62.7 ± 7.6 nM; IC50 (H460 (lung carcinoma); 72-hour exposure): 66 ± 19 nM; IC50 [1, 4]: 2.8 ± 0.3 nM; IC50 [1, 5]: 2.8 ± 0.3 nM; IC50 [2, 6]: 41.7 ± 5.7 nM; IC50 [2, 7]: 41.7 ± 5.7 nM; induction of apoptosis (phosphatidylserine exposure / propidium iodide inclusion) (U-937 cells): induce caspase-dependent apoptotic cell death; also recorded: induce apoptosis |
| CN1C(=O)[C@@]23C[C@]4(c5c[nH]c6ccccc56)c5ccccc5N[C@@H]4N2C(=O)[C@@H]1SSS3 [Compound 29, C3-(Indol-3′-yl) epitrithiodiketopiperazine] | 217 ± 35 nM | 168 ± 34 nM | 348 ± 110 nM | 24.5 ± 7.4 nM | 24.5 ± 7.4 nM | 123 ± 29 nM | 123 ± 29 nM | tends to degrade | – | – |
| CN1C(=O)C23CC4(c5c[nH]c6ccccc56)c5ccccc5N(S(=O)(=O)c5ccccc5)[C@@H]4N2C(=O)[C@H]1SC(=S)S3 (stereo partly drawn) [Compound 36, C3-(Indol-3′-yl)dithiepanethione] | 163 ± 7 nM | 133 ± 10 nM | 190 ± 61 nM | 3.8 ± 0.9 nM | 3.8 ± 0.9 nM | 33 ± 13 nM | 33 ± 13 nM | tends to degrade | competent anticancer agents | – |
| CN1C(=O)[C@@]23C[C@]4(c5c[nH]c6ccccc56)c5ccccc5N(S(=O)(=O)c5ccccc5)[C@@H]4N2C(=O)[C@@H]1SSS3 [Compound 27, C3-(Indol-3′-yl) epitrithiodiketopiperazine] | 151 ± 31 nM | 145 ± 10 nM | 146 ± 6.9 nM | 36.6 ± 2.4 nM | 36.6 ± 2.4 nM | 27.5 ± 9.2 nM | 27.5 ± 9.2 nM | tends to degrade | – | – |
| CN1C(=O)[C@@]23C[C@]4(c5c[nH]c6ccccc56)c5ccccc5N(S(=O)(=O)c5ccccc5)[C@@H]4N2C(=O)[C@@H]1SSSS3 [Compound 28, C3-(Indol-3′-yl) epitetrathiodiketopiperazine] | 309 ± 31 nM | 344 ± 20 nM | 277 ± 43 nM | 8.3 ± 3.3 nM | 8.3 ± 3.3 nM | 137 ± 86 nM | 137 ± 86 nM | instability in solution | – | – |
| CN1C(=O)[C@@]23C[C@]4([C@]56C[C@@]78SSSS[C@@](CO)(C(=O)N7[C@H]5Nc5ccccc56)N(C)C8=O)c5ccccc5N[C@@H]4N2C(=O)[C@]1(CO)SSSS3 [Compound 6, (+)-12,12′-dideoxychetracin A] | 22.5 ± 6 nM | 16 ± 2.4 nM | 39.3 ± 41 nM | 1.3 ± 0.5 nM | 1.3 ± 0.5 nM | 5.6 ± 1 nM | 5.6 ± 1 nM | – | active across the board | IC50 ([1]; Homo sapiens, U-937, 72-hour exposure, read-out: IC50 (U-937)): 0.75 to 1.3 nM; IC50 ([2]; Homo sapiens, HeLa, 72-hour exposure, read-out: IC50 (HeLa)): 5.6 to 6.9 nM |
| COc1ccc([C@]23C[C@@]45SS[C@@H](C(=O)N4[C@H]2N(S(=O)(=O)c2ccccc2)c2ccccc23)N(C)C5=O)cc1 [Compound 33, C3-(p-Methoxyphenyl)epidithiodiketopiperazine] | 63 ± 16 nM | 83 ± 18 nM | 46.7 ± 5.3 nM | – | – | – | – | – | – | IC50 ([1]; Homo sapiens, U-937, 72 h, read-out: IC50 (U-937)): 2.8 to 14.8 nM; IC50 ([1]; Homo sapiens, U-937, 72 h, read-out: U-937, 72-hour IC50 (Table E1-1)): 5 ± 2.1 nM; IC50 ([1]; Homo sapiens, U-937, 72 h, read-out: U-937, 72-hour IC50 (Table E1-2)): 5 ± 2.1 nM; IC50 ([2]; Homo sapiens, HeLa, 72 h, read-out: HeLa, 72-hour IC50 (Table E1-1)): 22.2 ± 10.9 nM; IC50 ([2]; Homo sapiens, HeLa, 72 h, read-out: HeLa, 72-hour IC50 (Table E1-2)): 22.2 ± 10.9 nM; IC50 ([2]; Homo sapiens, HeLa, 72 h, read-out: IC50 (HeLa)): 22 to 75 nM; change in activity across cell lines (human cancer cell lines; five cell lines of Table E1-2): 4 fold |
| CN1C(=O)[C@@]23C[C@]4(Br)c5ccccc5N(S(=O)(=O)c5ccccc5)[C@@H]4N2C(=O)[C@@H]1SS3 [Compound 30, C3-Bromo epidithiodiketopiperazines] | – | – | – | – | – | – | – | – | intermediately good activity | IC50 (MCF-7 (breast carcinoma); 72-hour exposure): 152 ± 42 nM; IC50 (786-O (renal carcinoma); 72-hour exposure): 162 ± 35 nM; IC50 (H460 (lung carcinoma); 72-hour exposure): 277 ± 44 nM; IC50 [1, 4]: 5 ± 1.3 nM; IC50 [1, 5]: 5 ± 1.3 nM; IC50 [2, 6]: 44.9 ± 1.3 nM; IC50 [2, 7]: 44.9 ± 1.3 nM |
